In general, pKd refers to the Kd on a negative log10 scale, so that one unit is a factor of ten. Read a low pKd as a large Kd.

The test concerns the target T1, ribose binding protein RbsB (Escherichia coli, UniProt P02925).
T1 sequence (P02925 26-296): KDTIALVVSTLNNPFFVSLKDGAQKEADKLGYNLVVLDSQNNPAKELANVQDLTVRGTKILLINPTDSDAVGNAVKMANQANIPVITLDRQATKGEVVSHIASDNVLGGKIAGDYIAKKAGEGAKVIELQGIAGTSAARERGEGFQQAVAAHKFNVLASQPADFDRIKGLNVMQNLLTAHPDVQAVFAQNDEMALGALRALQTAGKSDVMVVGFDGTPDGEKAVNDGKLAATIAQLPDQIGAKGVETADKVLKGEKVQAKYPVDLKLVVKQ
As to the kind of experiment: ITC with purified protein, […]°C, one-site fit.

Molecules are shown by their SMILES. pKd: −log10 of the molar value.

`O=C[C@H](O)[C@H](O)[C@H](O)CO` [ribose] had a pKd of 6.90.

(Values after publication PMC4088097 (Scientific Reports, 2014).)
